Laboratory results from patent US11427548B2 (Arvinas Operations, Inc., priority 2015, dated 2022).
Read-outs that look alike come from different tables or passages of the source.

How the values were obtained:
Format in all cases: cell-based
Androgen Receptor [1] = molecular target: T1, Androgen Receptor (Homo sapiens, UniProt P10275); assay: Androgen Receptor ELISA assay (PathScan AR ELISA) in VCaP cells: AR degradation, Dmax and DC50
T1 construct: endogenous in cells; host or cells: VCaP cells
T1 sequence (P10275 1-920): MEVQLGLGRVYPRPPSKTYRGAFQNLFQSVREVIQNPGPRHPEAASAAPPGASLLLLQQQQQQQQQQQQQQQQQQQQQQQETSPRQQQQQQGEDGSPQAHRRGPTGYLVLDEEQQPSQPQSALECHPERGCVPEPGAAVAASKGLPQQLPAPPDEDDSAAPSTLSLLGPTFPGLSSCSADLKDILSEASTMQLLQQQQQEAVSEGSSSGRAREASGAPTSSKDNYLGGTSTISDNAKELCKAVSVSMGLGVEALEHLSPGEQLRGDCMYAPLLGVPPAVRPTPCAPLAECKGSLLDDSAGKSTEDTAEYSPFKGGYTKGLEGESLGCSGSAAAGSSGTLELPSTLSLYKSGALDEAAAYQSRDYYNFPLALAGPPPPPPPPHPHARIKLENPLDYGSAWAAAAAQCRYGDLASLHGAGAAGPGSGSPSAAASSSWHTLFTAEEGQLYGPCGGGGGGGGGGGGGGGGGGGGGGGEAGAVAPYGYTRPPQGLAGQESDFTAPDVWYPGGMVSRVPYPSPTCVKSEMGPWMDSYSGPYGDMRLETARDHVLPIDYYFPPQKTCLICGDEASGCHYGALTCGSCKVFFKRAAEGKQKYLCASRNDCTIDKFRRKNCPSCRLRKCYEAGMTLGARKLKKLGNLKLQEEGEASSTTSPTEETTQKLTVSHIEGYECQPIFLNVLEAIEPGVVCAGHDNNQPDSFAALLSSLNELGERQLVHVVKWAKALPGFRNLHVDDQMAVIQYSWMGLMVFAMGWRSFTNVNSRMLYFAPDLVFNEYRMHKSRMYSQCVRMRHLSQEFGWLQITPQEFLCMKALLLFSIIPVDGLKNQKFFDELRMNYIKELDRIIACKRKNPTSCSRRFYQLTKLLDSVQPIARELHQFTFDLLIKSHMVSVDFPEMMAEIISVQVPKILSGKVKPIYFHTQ
Summary of the method: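 VCaP cells, 30,000/well, grown ≥3 days in phenol red-free RPMI with 5% charcoal-stripped FBS; compound added in 0.1% DMSO with 0.1 nM R1881, 7 half-log doses, 24 h. Lysate AR quantified by PathScan sandwich ELISA, HRP/TMB read at 450 nm, giving DC50 and Dmax.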

VCaP cells = assay: VCaP cell proliferation assay (Cell Titer Glo), GI50; conditions: Homo sapiens, VCaP cells, 0.1 nM R1881, read-out: GI50, Inhibition of VCaP Proliferation
Method: 2. VCaP Cell Proliferation Assay.
VCaP cells are plated 7,500/well 200 μL/well in VCaP assay medium [Phenol red free RPMI (Gibco Cat #11835-030); 5% Charcoal Stripped (Dextran treated) FBS (Omega Scientific, Cat #FB-04); Pen/Strep Life Technologies (Gibco Cat #: 10378-016); 0.1 nM R1881 (Sigma, Cat #R0908) is added upon the start of the assay, not during initial plating of the cells).
The assay was performed as follows: the cells are grown for a minimum of 3 days to deplete androgens; dosing of PROTACs and R1881 is performed as for AR ELISA; the baseline reading of Cell Titer Glo can be performed on day of dosing.
VCaP cells with 0.1 nM R1881 will double once in 4 days. Gently draw off 110 μL of media so as not to disturb the adherent cells; add 110 μL of CTG; incubate with slow shaking for 20 minutes; and read luminescence on a plate reader.

Androgen Receptor [2] = molecular target: T2, Androgen Receptor (Homo sapiens, UniProt P10275+P40337, T878A); assay: Androgen Receptor ELISA assay (PathScan AR ELISA) in LNCaP cells: AR degradation, Dmax and DC50
T2 construct: Compounds have been evaluated in this assay in LNCaP and/or VCaP cells utilizing similar protocols; endogenous in cells; host or cells: LNCaP cells

[3] = VCaP, highest percentage of Androgen Receptor degradation observed, VCaP cells (Table 32); read-out: VCaP Dmax (%)
[4] = concentration that caused 50% Androgen Receptor degradation, VCaP cells (Table 32); read-out: VCaP DC50
[5] = VCaP cells; concentration that caused 50% Androgen Receptor degradation; read-out: VCaP DC50
[6] = VCaP, VCaP cells; highest percentage of Androgen Receptor degradation; read-out: VCaP Dmax (%)

T2 sequence (P10275 whole entry T878A): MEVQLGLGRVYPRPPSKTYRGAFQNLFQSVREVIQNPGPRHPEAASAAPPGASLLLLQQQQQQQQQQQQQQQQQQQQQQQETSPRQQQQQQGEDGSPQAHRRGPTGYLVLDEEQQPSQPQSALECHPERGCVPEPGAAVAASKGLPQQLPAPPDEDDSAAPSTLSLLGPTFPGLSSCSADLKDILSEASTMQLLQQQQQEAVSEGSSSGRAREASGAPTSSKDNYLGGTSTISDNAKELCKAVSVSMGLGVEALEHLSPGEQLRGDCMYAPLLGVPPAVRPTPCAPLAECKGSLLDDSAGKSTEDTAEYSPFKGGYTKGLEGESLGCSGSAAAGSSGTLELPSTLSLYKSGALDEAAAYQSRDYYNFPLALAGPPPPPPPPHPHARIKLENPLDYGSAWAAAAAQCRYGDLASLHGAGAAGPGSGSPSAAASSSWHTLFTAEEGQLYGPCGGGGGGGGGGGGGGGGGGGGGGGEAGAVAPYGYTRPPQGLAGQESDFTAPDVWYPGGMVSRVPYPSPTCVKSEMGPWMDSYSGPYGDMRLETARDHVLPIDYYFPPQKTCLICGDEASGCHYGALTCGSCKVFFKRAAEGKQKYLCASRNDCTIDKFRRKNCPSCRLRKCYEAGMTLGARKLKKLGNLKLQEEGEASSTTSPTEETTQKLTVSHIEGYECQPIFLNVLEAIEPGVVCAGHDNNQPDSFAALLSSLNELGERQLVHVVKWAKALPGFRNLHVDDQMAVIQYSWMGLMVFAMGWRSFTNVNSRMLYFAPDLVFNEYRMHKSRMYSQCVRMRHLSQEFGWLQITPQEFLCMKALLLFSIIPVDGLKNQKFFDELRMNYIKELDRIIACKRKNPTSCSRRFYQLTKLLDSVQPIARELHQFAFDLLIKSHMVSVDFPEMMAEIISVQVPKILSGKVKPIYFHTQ
T2 sequence (P40337 whole entry): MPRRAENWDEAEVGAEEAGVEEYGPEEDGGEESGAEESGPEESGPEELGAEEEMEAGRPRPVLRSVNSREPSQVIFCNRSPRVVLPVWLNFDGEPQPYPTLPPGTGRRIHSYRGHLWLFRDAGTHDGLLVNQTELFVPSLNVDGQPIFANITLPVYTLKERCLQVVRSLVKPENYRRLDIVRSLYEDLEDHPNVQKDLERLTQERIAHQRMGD
T2 sequence (Q15369 whole entry partner): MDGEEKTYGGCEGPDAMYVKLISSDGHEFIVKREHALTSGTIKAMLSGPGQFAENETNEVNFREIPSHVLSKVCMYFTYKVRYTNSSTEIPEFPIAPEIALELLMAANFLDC
T2 sequence (Q15370 whole entry partner): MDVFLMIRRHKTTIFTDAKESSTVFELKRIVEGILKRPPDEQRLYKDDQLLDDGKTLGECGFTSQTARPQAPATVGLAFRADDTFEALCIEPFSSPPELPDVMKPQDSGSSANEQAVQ

Structure (SMILES)	GI50 (VCaP cells; Table 37) [nM]	GI50 (VCaP cells; Table 38 (ABM)) [nM]	further results
Cc1ncsc1-c1ccc(CNC(=O)[C@@H]2C[C@@H](O)CN2C(=O)[C@@H](NC(=O)COCCCCCNc2ccc(C(=O)N[C@H]3C(C)(C)[C@H](Oc4ccc(C#N)c(Cl)c4)C3(C)C)cc2)C(C)(C)C)cc1 [Example 172, (2S,4R)-1-[(2S)-3,3-dimethyl-2-[2-({5-[(4-{[trans-3-(3-chloro-4-cyanophenoxy)-2,2,4,4-tetramethylcyclobutyl]carbamoyl}phenyl)amino]pentyl}oxy)acetamido]butanoyl]-4-hydroxy-N-{[4-(4-methyl-1,3-thiazol-5-yl)phenyl]methyl}pyrrolidine-2-carboxamide]	≤ 50		Dmax (Androgen Receptor [1]; [3]): > 71%
Cc1ncsc1-c1ccc(CNC(=O)[C@@H]2C[C@@H](O)CN2C(=O)[C@@H](NC(=O)COC[C@@H](O)CCOc2ccc(-c3ccc(N4C(=S)N(c5ccc(C#N)c(C(F)(F)F)c5)C(=O)C4(C)C)cc3)cc2)C(C)(C)C)cc1 [Example 131, (2S,4R)-1-[(2S)-2-{2-[(2S)-4-[4-(4-{3-[4-cyano-3-(trifluoromethyl)phenyl]-5,5-dimethyl-4-oxo-2-sulfanylideneimidazolidin-1-yl}phenyl)phenoxy]-2-hydroxybutoxy]acetamido}-3,3-dimethylbutanoyl]-4-hydroxy-N-{[4-(4-methyl-1,3-thiazol-5-yl)phenyl]methyl}pyrrolidine-2-carboxamide]	51 to 250		Dmax (Androgen Receptor [1]; VCaP, read-out: VCaP Dmax (%)): > 71%
CC1(C)[C@H](NC(=O)c2ccc(NCCCCCO)cc2)C(C)(C)[C@H]1Oc1ccc(C#N)c(Cl)c1 [ABM-36]		≤ 50	
Cc1ncoc1-c1ccc([C@H](C)NC(=O)[C@@H]2C[C@@H](O)CN2C(=O)[C@@H](NC(=O)COCCCCCOc2ccc(C(=O)N[C@H]3C(C)(C)[C@H](Oc4ccc(C#N)c(Cl)c4)C3(C)C)cc2)C(C)(C)C)cc1 [Example 156, (2S,4R)-1-[(2S)-3,3-dimethyl-2-(2-{[5-(4-{[trans--3-(3-chloro-4-cyanophenoxy)-2,2,4,4-tetramethylcyclobutyl]carbamoyl]phen-oxy)pentyl]oxy}acetamido)butanoyl]-4-hydroxy-N-[(1S)-1-[4-(4-methyl-1,3-oxazol-5-yl)phenyl]ethyl]pyrrolidine-2-carboxamide]	≤ 50		Dmax (Androgen Receptor [1]; [3]): > 71%; DC50 (Androgen Receptor [1]; [4]): < 50 nM
CC(C)(C)OC(=O)N[C@H]1C(C)(C)[C@H](Oc2ccc(C#N)c(Cl)c2)C1(C)C [ABM-29]		51 to 250	
Cc1ncoc1-c1ccc([C@H](C)NC(=O)[C@@H]2C[C@@H](O)CN2C(=O)[C@@H](NC(=O)COCCCCOc2ccc(-c3ccc(N4C(=S)N(c5cnc(C#N)c(C(F)(F)F)c5)C(=O)C4(C)C)cc3)cc2)C(C)(C)C)cc1 [Example 195, (2S,4R)-1-[(2S)-2-(2-{4-[4-(4-{3-[6-cyano-5-(trifluoromethyl)pyridin-3-yl]-5,5-dimethyl-4-oxo-2-sulfanylideneimidazolidin-1-yl}phenyl)phenoxy]butoxy}acetamido)-3,3-dimethylbutanoyl]-4-hydroxy-N-[(1S)-1-[4-(4-methyl-1,3-oxazol-5-yl)phenyl]ethyl]pyrrolidine-2-carboxamide]	51 to 250		DC50 (Androgen Receptor [1]; [5]): < 50 nM; Dmax (Androgen Receptor [1]; [6]): > 71%
Cc1cc(-c2ccc(N3C(=S)N(c4ccc(C#N)c(C(F)(F)F)c4)C(=O)C3(C)C)cc2)ccc1OCCCCOCC(=O)N[C@H](C(=O)N1C[C@H](O)C[C@H]1C(=O)NCc1ccc(-c2scnc2C)cc1)C(C)(C)C [Example 134, (2S,4R)-1-[(2S)-2-(2-{4-[4-(4-{3-[4-cyano-3-(trifluoromethyl)phenyl]-5,5-dimethyl-4-oxo-2-sulfanylideneimidazolidin-1-yl}phenyl)-2-methylphenoxy]butoxy}acetamido)-3,3-dimethylbutanoyl]-4-hydroxy-N-{[4-(4-methyl-1,3-thiazol-5-yl)phenyl]methyl}pyrrolidine-2-carboxamide]	51 to 250		Dmax (Androgen Receptor [1]; VCaP, read-out: VCaP Dmax (%)): > 71%; DC50 (Androgen Receptor [1]; read-out: VCaP DC50; concentration that caused 50% Androgen Receptor degradation, VCaP cells (Table 32)): < 50 nM
Cc1ncsc1-c1ccc([C@H](C)NC(=O)[C@@H]2C[C@@H](O)CN2C(=O)[C@@H](NC(=O)COCCCCOc2ccc(-c3ccc(N4C(=S)N(c5cnc(C#N)c(C(F)(F)F)c5)C(=O)C4(C)C)cc3)cc2)C(C)(C)C)cc1 [Example 194, (2S,4R)-1-[(2S)-2-(2-{4-[4-(4-{3-[6-cyano-5-(trifluoromethyl)pyridin-3-yl]-5,5-dimethyl-4-oxo-2-sulfanylideneimidazolidin-1-yl}phenyl)phenoxy]butoxy}acetamido)-3,3-dimethylbutanoyl]-4-hydroxy-N-[(1S)-1-[4-(4-methyl-1,3-thiazol-5-yl)phenyl]ethyl]pyrrolidine-2-carboxamide]	51 to 250		DC50 (Androgen Receptor [1]; [5]): < 50 nM; Dmax (Androgen Receptor [1]; [6]): > 71%
CC(C)(C)[C@H](NC(=O)COCCCCOc1ccc(C(=O)N[C@H]2C(C)(C)[C@H](Oc3ccc(C#N)c(Cl)c3)C2(C)C)cc1)C(=O)N1C[C@H](O)C[C@H]1C(=O)NCc1ccc(C#N)cc1 [Example 170, (2S,4R)-N-[(4-cyanophenyl)methyl]-1-[(2S)-3,3-dimethyl-2-{2-[4-(4-{[trans-3-(3-chloro-4-cyanophenoxy)-2,2,4,4-tetramethylcyclobutyl]carbamoyl}phenoxy)butoxy]acetamido}butanoyl]-4-hydroxypyrrolidine-2-carboxamide]	≤ 50		Dmax (Androgen Receptor [1]; [3]): > 71%; DC50 (Androgen Receptor [1]; [4]): < 50 nM
CC1(C)[C@H](NC(=O)c2cnc(N)cn2)C(C)(C)[C@H]1Oc1ccc(C#N)c(Cl)c1 [ABM-31]		51 to 250	
CC1(C)[C@H](NC(=O)c2cnn(CCO)c2)C(C)(C)[C@H]1Oc1ccc(C#N)c(Cl)c1 [ABM-34]		≥ 251	
CC1(C)[C@H](N)C(C)(C)[C@@H]1Oc1ccc(C#N)c(Cl)c1 [ABM-27]		≥ 251	
COc1ccc(C(=O)N[C@H]2C(C)(C)[C@H](Oc3ccc(C#N)c(Cl)c3)C2(C)C)cc1 [ABM-33]		51 to 250	
CC1(C)[C@H](NC(=O)c2ccc(N)cc2)C(C)(C)[C@H]1Oc1ccc(C#N)c(Cl)c1 [ABM-30]		≤ 50	
CC(C)(C)OC(=O)COCCCCCNc1ccc(C(=O)N[C@H]2C(C)(C)[C@H](Oc3ccc(C#N)c(Cl)c3)C2(C)C)cc1 [ABM-37]		≤ 50	
CC1(C)[C@H](N)C(C)(C)[C@H]1Oc1ccc(C#N)c(Cl)c1 [ABM-26]		51 to 250	
Cc1ncsc1-c1ccc(CNC(=O)[C@@H]2C[C@@H](O)CN2C(=O)[C@@H](NC(=O)CCOCC#CC#CCOc2ccc(N3C(=S)N(c4ccc(C#N)c(C(F)(F)F)c4)C(=O)C3(C)C)cc2)C(C)(C)C)cc1 [Example 55, (2S,4R)-1-[(2S)-2-(3-{[6-(4-{3-[4-cyano-3-(trifluoromethyl)phenyl]-5,5-dimethyl-4-oxo-2-sulfanylideneimidazolidin-1-yl}phenoxy)hexa-2,4-diyn-1-yl]oxy}propanamido)-3,3-dimethylbutanoyl]-4-hydroxy-N-{[4-(4-methyl-1,3-thiazol-5-yl)phenyl]methyl}pyrrolidine-2-carboxamide]			Dmax (Androgen Receptor [1]; VCaP, read-out: VCaP Dmax (%)): 51 to 70%; DC50 (Androgen Receptor [2]; concentration that caused 50% Androgen Receptor degradation): > 501 nM; Dmax (Androgen Receptor [2]; highest percentage of Androgen Receptor degradation observed): 26 to 50%
